# Measured values reported in ChEMBL document CHEMBL1139792, “Correlation of carboxylic acid pKa to protein binding and antibacterial activity of a novel class of bacterial translation inhibitors” (Bioorg Med Chem Lett, 2007).
# The source made the active and inactive calls. The calls are words filed in the database; no cut-off is given here.
# Assays:
# Staphylococcus aureus [1] = test: Antibacterial activity against Staphylococcus aureus UC9218; assay type: functional
# Staphylococcus aureus [2] = test: Antibacterial activity against Staphylococcus aureus UC9218 in presence of 10% human serum; assay type: functional
# Staphylococcus aureus [3] = test: Antibacterial activity against Staphylococcus aureus UC9218 in presence of 5% human serum; assay type: functional
# Albumin [4] = biological target: T1, Albumin (Homo sapiens, UniProt P02768); test: Displacement of fluorescent dansyl sarcosine from human serum albumin site II on subdomain IIIA
# [5] = Acid dissociation constant, pKa by pressure-assisted capillary electrophoresis method; assay type: physicochemical
# Staphylococcus aureus [6] = test: Antibacterial activity against Staphylococcus aureus in mouse bacteremia model; assay type: functional
# Albumin [7] = biological target: T1, Albumin; test: Binding to high affinity site of human serum albumin; assay type: ADME
# T1 sequence (P02768 whole entry): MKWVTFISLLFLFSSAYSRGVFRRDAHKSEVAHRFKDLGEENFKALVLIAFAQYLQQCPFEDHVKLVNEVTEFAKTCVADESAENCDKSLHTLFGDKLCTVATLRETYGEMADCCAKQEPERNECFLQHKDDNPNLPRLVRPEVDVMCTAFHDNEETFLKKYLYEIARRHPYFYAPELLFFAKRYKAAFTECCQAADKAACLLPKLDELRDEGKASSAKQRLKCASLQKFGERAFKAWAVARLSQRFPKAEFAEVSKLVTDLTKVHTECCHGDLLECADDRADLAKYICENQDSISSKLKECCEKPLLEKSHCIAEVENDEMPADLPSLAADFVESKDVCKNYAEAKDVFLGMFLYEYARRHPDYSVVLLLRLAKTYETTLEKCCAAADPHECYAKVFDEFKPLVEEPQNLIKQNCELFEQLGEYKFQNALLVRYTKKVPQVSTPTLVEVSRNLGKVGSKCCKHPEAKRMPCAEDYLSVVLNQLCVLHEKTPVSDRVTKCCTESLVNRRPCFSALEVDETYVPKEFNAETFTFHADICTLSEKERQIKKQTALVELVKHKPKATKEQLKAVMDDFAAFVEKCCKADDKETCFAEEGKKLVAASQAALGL
MIC (Staphylococcus aureus [1]) [µg/mL],MIC (Staphylococcus aureus [2]) [µg/mL],MIC (Staphylococcus aureus [3]) [µg/mL],Kd (Albumin [4]) [µM],pKa [5],Kd (Albumin [7]) [µM],Structure (SMILES),ED50 (Staphylococcus aureus [6]) [mg/kg],Activity (Staphylococcus aureus [6])
128,,128,6.6,2.92,,O=C(Nc1ccc(F)cc1C(=O)O)c1cccc(S(=O)(=O)N2CCOCC2)c1,,
4,,32,4.8,2.79,,O=C(Nc1ccc(Br)cc1C(=O)O)c1cccc(S(=O)(=O)N2CCOCC2)c1,,
> 128,,> 128,7.5,3.36,,Cc1ccc(NC(=O)c2cccc(S(=O)(=O)N3CCOCC3)c2)c(C(=O)O)c1,,
> 128,,> 128,8.1,3.12,,COc1ccc(NC(=O)c2cccc(S(=O)(=O)N3CCOCC3)c2)c(C(=O)O)c1,,

# Further lines, the compound ahead of its results:
Structure (SMILES),MIC (Staphylococcus aureus [1]) [µg/mL],MIC (Staphylococcus aureus [2]) [µg/mL],MIC (Staphylococcus aureus [3]) [µg/mL],Kd (Albumin [4]) [µM],pKa [5],Kd (Albumin [7]) [µM],ED50 (Staphylococcus aureus [6]) [mg/kg],Activity (Staphylococcus aureus [6])
CCCN(CCC)S(=O)(=O)c1ccc(C(=O)Nc2cc3ccccc3cc2C(=O)O)cc1,32,> 64,,,,,,
O=C(Nc1ccc(Cl)cc1C(=O)O)c1cccc(S(=O)(=O)N2CCOCC2)c1,4,,32,6.5,2.81,,,
N#Cc1ccc(NC(=O)c2cc(SCc3ccccc3)on2)c(C(=O)O)c1,0.125,4,,,,,,
N#Cc1ccc(NC(=O)c2ccc(S(=O)(=O)N3CCOCC3)cc2)c(C(=O)O)c1,1,4,2,5.3,2.56,14,> 200,
O=C(Nc1ccc([N+](=O)[O-])cc1C(=O)O)c1cccc(S(=O)(=O)N2CCOCC2)c1,4,,16,4.4,3.44,,,
O=C(Nc1ccccc1C(=O)O)c1cccc(S(=O)(=O)N2CCOCC2)c1,> 128,,> 128,6,3.18,,,
N#Cc1ccc(NC(=O)c2ccc(S(=O)(=O)N3CCc4cc(Cl)ccc43)cc2)c(C(=O)O)c1,0.125,8,,,,,,inactive
N#Cc1ccc(NC(=O)c2ccc(S(=O)(=O)N3CCCC3)cc2)c(C(=O)O)c1,1,8,,,,,,inactive
O=C(Nc1ccc(Br)cc1C(=O)O)c1ccc(S(=O)(=O)N2CCc3cc(Cl)ccc32)cc1,0.125,64,,,,,,
